# Test results from patent US20120258974A1, “USE OF A2B ADENOSINE RECEPTOR ANTAGONISTS FOR TREATING HEART FAILURE AND ARRHYTHMIA IN POST-MYOCARDIAL INFARCTION PATIENTS” (GILEAD SCIENCES, INC., priority 2011, published 2012).
# Entries after “also recorded” stand apart in the source; their conditions may differ.
# Columns and labels:
# [1] = test system: human cardiac myocytes (HCM); experiment: NECA-induced IL-6 release from human cardiac myocytes (Example 7); format: cell-based; details: for effect of NECA on HCM (IL-6 release): NECA in combination with antagonist
# Description: This example uses human cardiac myocytes to test two other A2B adenosine receptor antagonists on their effect on NECA-induced IL-6 release.
# Human cardiac myocytes (HCM) were treated with NECA alone, or in combination with Compound A, Compound B (N-[5-(1-cyclopropyl-2,6-dioxo-3-propyl-2,3,6,7-tetrahydro-1H-purin-8-yl)-pyridin-2-yl]-N-ethyl-nicotinamide, also known as ATL-801) or Compound C (2-(4-benzyloxy-phenyl)-N-[5-(2,6-dioxo-1,3-dipropyl-2,3,6,7-tetrahydro-1H-purin-8-yl)-1-methyl-1H-pyrazol-3-yl]-acetamide).
# [2] = test system: rats with MI (25 minutes coronary occlusion followed by reperfusion); experiment: Rat model of post-MI remodeling: serial echocardiograms (Example 6); format: in vivo
# Description: The effects of Compound A in a rat model of post-MI remodeling and VT were determined. MI was caused by 25 minutes occlusion at the left anterior descending coronary ligation followed by reperfusion. One week later, rats were administered either vehicle or Compound A (100 mg/kg) once daily by oral gavage. Serial echocardiograms (ECHOs) to measure LV ejection fraction (LVEF), stroke volume and LV end systolic volume (LVESV) were obtained at baseline, 1 week and 5 week post-MI. Electrophysiological studies, optical mapping, histology and biomarker analysis were conducted at 5 week post-MI.
# [3] = test system: primary human cardiac fibroblasts (HCF); experiment: NECA-induced release of IL-6, collagen, ST-2, PAPPA and expression of fibrotic markers in human cardiac fibroblasts (Example 2); format: cell-based
# Description: Real-time RT-PCR was performed as published using Stratagene PCR equipment (La Jolla, Calif.). Zhong H., et al., “A2B adenosine receptors increase cytokine release by bronchial smooth muscle cells,” American Journal of Respiratory Cell and Molecular Biology, 30(1): 118-125 (2004).
# Expression of AdoR, α-smooth muscle actin and α-1 pro-collagen was determined using real-time RT-PCR. The concentration of IL-6, soluble ST-2 and PAPPA (Pregnancy-associated plasma protein A) in the cell supernatants were measured using ELISA, and the concentration of soluble collagen were determined using Sircol™ collagen assay.
compound,measurement,setting,value
"CCCn1c(=O)n(C2CC2)c(=O)c2[nH]c(-c3ccc(N(CC)C(=O)c4cccnc4)nc3)nc21 [Compound B, N-[5-(1-cyclopropyl-2,6-dioxo-3-propyl-2,3,6,7-tetrahydro-1H-purin-8-yl)-pyridin-2-yl]-N-ethyl-nicotinamide]",effect of NECA on HCM (IL-6 release),[1],completely abolished
CCCn1c(=O)c2[nH]c(-c3cc(NC(=O)Cc4ccc(OCc5ccccc5)cc4)nn3C)nc2n(CCC)c1=O [Compound C],effect of NECA on HCM (IL-6 release),[1],completely abolished
"Cc1ccc(=O)n(-c2ccccc2)c1 [pirfenidone, reference compound]",reduction of LVEF,"[2]; post-MI, Example 6 and FIG. 12B",only slowed
same,LVESV (so in the source): increase and further reduction,"[2]; rat post-MI, comparison with Compound A, FIG. 12B",did not increase; also recorded: only slightly inhibited
N-ethylcarboxamide adenosine [NECA],soluble collagen concentration after stimulation,"[3]; NECA 10 μM, basal 3.4±0.2",6.0 ± 0.4 µg/mL
same,"production of collagen, fold induction","[3]; NECA 10 μM, p<0.05",1.8±0.1 fold
same,expression of α-1 pro-collagen,"[3]; NECA 10 μM, real-time RT-PCR",increased
same,expression of α-smooth muscle actin,"[3]; NECA 10 μM, real-time RT-PCR",increased
same,PAPPA concentration after stimulation,[3]; basal 1.4±0.5,6.2 ± 0.8 ng/mL
same,soluble ST-2 concentration after stimulation,[3]; basal 1.5±0.1,2.6 ± 0.1 ng/mL
same,"release of IL-6, maximal increase over the basal level",[3]; concentration-dependent,2.4±0.1 fold
same,"release of PAPPA, fold induction",[3]; p<0.05,4.4±0.6 fold
same,"release of soluble ST-2, fold induction",[3]; p<0.05,1.7±0.1 fold
same,IL-6 release from human cardiac myocytes,[1]; NECA alone,significantly increased
